Reference: PubChem BioAssay (NCI)
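Step 1: Grow cells in 96-well plates. Step 2: Expose to compound for 48 hours at 5 concentrations. Step 3: Interpolate endpoints linearly; if unreached, use highest concentration. GI50: concentration for 50% inhibition of growth. Definition used: TGI = concentration required for complete inhibition of growth.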

Columns and labels:
Assay in all cases: NCI anticancer screen, dose series, 48 h; in the data active = GI50 below about 0.43 µM; inactive = the rest
[1] = system: SK-OV-3 ovarian
[2] = system: HCT-15 colon
[3] = system: MDA-N
[4] = system: U251 CNS
[5] = system: COLO 205 colon
[6] = system: 786-0 renal
[7] = system: DU-145 prostate
[8] = system: SW-620 colon
[9] = system: BT-549 breast

O=C1/C(=C/c2cccs2)NC(=S)N1CN1CCCCC1
> 100 µM: TGI [1] | TGI [2] | TGI [3] | TGI [4] | TGI [6] | TGI [7] | TGI [8]
47.3 µM: TGI [5]

CCN1C[C@]2(C)CC[C@H](OC)C34C5C[C@@H]6[C@@H](OC)C[C@@](OC)(C5[C@H]6OCc5ccccc5)C(C13)[C@H](OC(C)=O)[C@@H]42 (some centres undefined)
> 100 µM: TGI [1] | TGI [2] | TGI [3] | TGI [4] | TGI [5] | TGI [6] | TGI [7] | TGI [9] | TGI [8]

O=C(Nc1ccc2[nH]c(C(=O)N3CC(CCl)c4ccc([N+](=O)[O-])cc43)cc2c1)c1cc2ccccc2o1 (centres undefined)
> 1100 µM: TGI [1] | TGI [2] | TGI [3] | TGI [4] | TGI [5] | TGI [6] | TGI [7] | TGI [9] | TGI [8]

CNC(=O)N1N[C@H](c2ccccc2)[C@@H]1c1ccccc1
> 100 µM: TGI [3] | TGI [6]
77.7 µM: TGI [8]
43 µM: TGI [4]
64 µM: TGI [2]
40.9 µM: TGI [9]
38.8 µM: TGI [5]
91.2 µM: TGI [1]

c1ccc(C2=C(c3ccccc3)Sc3nnc(CCCCCCCCc4nnc5n4NC(c4ccccc4)=C(c4ccccc4)S5)n3N2)cc1
> 100 µM: TGI [1] | TGI [2] | TGI [4] | TGI [5] | TGI [6] | TGI [7] | TGI [9] | TGI [8]

CN(CCNC(=S)c1cn(C)c2c1ccc1ccccc12)CCNC(=S)c1cn(C)c2c1ccc1ccccc12
> 100 µM: TGI [1] | TGI [2] | TGI [4] | TGI [5] | TGI [6] | TGI [7] | TGI [9] | TGI [8]

C=C1C2CCC3(CCC4C5(C)CCCC4(C=[N+](CCO)C5)C3C2)C1O (centres undefined)
> 100 µM: TGI [1] | TGI [2] | TGI [3] | TGI [4] | TGI [5] | TGI [6] | TGI [7] | TGI [9] | TGI [8]

Cc1cccc(CNc2ncnc3[nH]ncc23)c1
> 100 µM: TGI [1] | TGI [2] | TGI [3] | TGI [4] | TGI [5] | TGI [6] | TGI [7] | TGI [9] | TGI [8]

C=C[C@]1(O[Si](C)(C)C)C[C@@]2(C(=O)OCC)C(O)C(=O)N3CCc4cc(OC)c(OC)cc4[C@]312 (some centres undefined)
> 100 µM: TGI [1] | TGI [2] | TGI [3] | TGI [4] | TGI [5] | TGI [6] | TGI [7] | TGI [9] | TGI [8]

O=C1c2ccccc2C(=O)c2c1cc1c(c2[N+](=O)[O-])OCO1
16.8 µM: TGI [5]
8.82 µM: TGI [2]
8.43 µM: TGI [7]
inactive: GI50 [2] 2.15 µM | GI50 [4] 2.15 µM | GI50 [5] 3.46 µM | GI50 [7] 2.58 µM | GI50 [8] 0.68 µM
11.5 µM: TGI [8]
7.72 µM: TGI [4]

C[C@@]1(OC(=O)c2cc([N+](=O)[O-])cc([N+](=O)[O-])c2)C[C@@H]2CCCC[C@@H]21
> 100 µM: TGI [1] | TGI [2] | TGI [3] | TGI [4] | TGI [5] | TGI [6] | TGI [7] | TGI [9] | TGI [8]

CC(=O)N(CC(=O)C(=O)NNc1ccoc1)c1ccc(Cl)cc1
> 100 µM: TGI [1] | TGI [2] | TGI [3] | TGI [4] | TGI [5] | TGI [6] | TGI [7] | TGI [9] | TGI [8]

O=S(=O)(O)c1ccc2cc(N=Nc3c(O)ccc4ccccc34)ccc2c1
> 100 µM: TGI [1] | TGI [2] | TGI [3] | TGI [4] | TGI [5] | TGI [6] | TGI [7] | TGI [9] | TGI [8]

BrCc1ccc(CBr)c2c1-c1c(CBr)ccc3ccc(CBr)c-2c13
> 100 µM: TGI [1] | TGI [2] | TGI [3] | TGI [4] | TGI [6] | TGI [7] | TGI [9] | TGI [8]

C[C@H](NC(=O)CNC(=O)CCCCCC(=O)NCC(=O)N[C@@H](C)C(=O)OCc1ccccc1)C(=O)OCc1ccccc1
> 100 µM: TGI [1] | TGI [2] | TGI [3] | TGI [4] | TGI [5] | TGI [6] | TGI [7] | TGI [9] | TGI [8]

C=CCNC(=O)CN(CC(=O)O)C1CCCCC1N(CC(=O)O)CC(=O)O (centres undefined)
> 100 µM: TGI [1] | TGI [2] | TGI [3] | TGI [4] | TGI [5] | TGI [6] | TGI [7] | TGI [9] | TGI [8]

Nc1c(Cl)cc(-c2nc3ccccc3s2)cc1Cl
> 100 µM: TGI [1] | TGI [2] | TGI [3] | TGI [4] | TGI [5] | TGI [6] | TGI [7] | TGI [9] | TGI [8]

O=c1[nH]c(=O)n(C2C(CO)OC(CO)C2O)cc1F (centres undefined)
> 100 µM: TGI [1] | TGI [2] | TGI [3] | TGI [4] | TGI [5] | TGI [6] | TGI [7] | TGI [9] | TGI [8]

O=C(O)CC12CC3CC(CC(O)(C3)C1)C2
> 100 µM: TGI [1] | TGI [2] | TGI [3] | TGI [4] | TGI [5] | TGI [6] | TGI [7] | TGI [9] | TGI [8]

O/N=C1/CCCc2nonc21
> 100 µM: TGI [1] | TGI [2] | TGI [3] | TGI [4] | TGI [5] | TGI [6] | TGI [7] | TGI [8]

Cc1ccc(/C=C2\Cc3cc(C)c(C)cc3C2=O)c(C(=O)O)c1
> 100 µM: TGI [2] | TGI [3] | TGI [4] | TGI [6] | TGI [7] | TGI [8]
82.6 µM: TGI [9]

O=C1CSC(c2ccccc2O)N1c1ccc(Oc2ccc(Cl)cc2)c(Cl)c1 (centres undefined)
34.9 µM: TGI [9]
39.5 µM: TGI [4]
35 µM: TGI [5]
47.9 µM: TGI [1]
36.4 µM: TGI [6]
> 100 µM: TGI [8]
59.8 µM: TGI [7]
46.9 µM: TGI [2]

CCOC(=O)/C=C/C1(CCOC(C)=O)CCCCC1
> 10 µM: TGI [1] | TGI [2] | TGI [3] | TGI [4] | TGI [5] | TGI [6] | TGI [7] | TGI [8]

S=C(N/N=C/c1ccccn1)N1CCCCCC1
22.6 µM: TGI [9]
> 100 µM: TGI [7] | TGI [8]
> 33.5 µM: TGI [2]
1.22 µM: TGI [6]
> 48.9 µM: TGI [3]
